Reference: patent US7358276B2, “2-Oxo-1-pyrrolidine derivatives, processes for preparing them and their uses” (UCB, S.A., priority 2000, dated 2008)

Tests used:
[1] = A. J. GOWER et al., Eur. J. Pharmacol., 222, (1992), 193-203; cited from earlier work
[2] = molecular target: T1, Levetiracetam Binding Site (LBS), rat cerebral cortex membranes (Rattus norvegicus, UniProt Q02563); assay: LBS binding assay (competitive binding, [3H]-2-[4-(3-azidophenyl)-2-oxo-1-pyrrolidinyl]butanamide); details: 4° C., 120 min
T1 construct: The crude membrane pellet obtained is resuspended in 50 mmol/l Tris-HCl (pH 7.4); from tissue; host or cells: rat cerebral cortex crude membranes (male Sprague-Dawley)

[3] = tested on: audiogenic seizures in sound-susceptible mice; assay: Animal model of sound-susceptible mice (audiogenic seizures); type: in vivo; details: intraperitoneally 60 minutes before induction of audiogenic seizures; doses given in mol/kg
Summary of the method: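 Genetically sound-sensitive DBA-derived mice (14-28 g, N=10 per group) received test compound or vehicle i.p. 60 min before a 30 s acoustic stimulus (90 dB, 10-20 kHz). Protection against wild running, clonic and tonic convulsions was scored. ED50 with 95% confidence limits was obtained by probit analysis for each phase.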

T1 sequence (Q02563 whole entry): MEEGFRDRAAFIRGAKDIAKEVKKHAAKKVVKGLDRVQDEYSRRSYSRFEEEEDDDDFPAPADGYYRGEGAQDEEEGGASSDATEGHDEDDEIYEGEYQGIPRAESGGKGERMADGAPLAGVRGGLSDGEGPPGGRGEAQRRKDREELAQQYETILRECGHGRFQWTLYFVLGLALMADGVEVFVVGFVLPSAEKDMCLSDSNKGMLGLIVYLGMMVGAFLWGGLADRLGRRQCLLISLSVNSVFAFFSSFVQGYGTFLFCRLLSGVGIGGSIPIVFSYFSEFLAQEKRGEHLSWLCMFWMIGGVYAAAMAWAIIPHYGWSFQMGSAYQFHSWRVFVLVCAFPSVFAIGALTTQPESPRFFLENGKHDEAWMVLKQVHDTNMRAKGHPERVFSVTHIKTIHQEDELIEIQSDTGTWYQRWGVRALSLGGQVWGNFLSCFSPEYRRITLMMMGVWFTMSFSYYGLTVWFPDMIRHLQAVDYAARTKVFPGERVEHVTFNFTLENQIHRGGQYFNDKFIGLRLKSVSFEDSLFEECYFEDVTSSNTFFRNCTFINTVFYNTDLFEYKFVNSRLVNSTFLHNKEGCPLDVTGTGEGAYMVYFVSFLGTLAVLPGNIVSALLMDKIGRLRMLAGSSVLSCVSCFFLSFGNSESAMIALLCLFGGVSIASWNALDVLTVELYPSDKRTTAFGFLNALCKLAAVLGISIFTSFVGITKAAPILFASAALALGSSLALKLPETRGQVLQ

Row | SMILES | activity in the treatment of epilepsy [1] | pKi (affinity for the levetiracetam binding site) [2] | ED50 (dose producing 50% protection against audiogenic seizures) [3] | melting point [°C]
1 | CC[C@H](C(N)=O)N1CCCC1=O [(R)-α-ethyl-2-oxo-1-pyrrolidine acetamide] | completely lacks activity |  |  | 
2 | CC[C@@H](C(N)=O)N1CCCC1=O [Levetiracetam, (S)-α-ethyl-2-oxo-1-pyrrolidine acetamide] | effective in the treatment of epilepsy |  |  | 
3 | CCCC1(C)CC(=O)N([C@@H](CC)C(N)=O)C1 (some centres unmarked) [Compound 250] |  | Particular affinity | Particularly promising activity | 133.3
4 | CC[C@@H](C(N)=O)N1CC(CC2CC2)CC1=O (some centres unmarked) [Compound 221] |  | Particular affinity | Particularly promising activity | 93.9
5 | CC[C@@H](C(N)=O)N1CC(c2ccc(N=[N+]=[N-])cc2)CC1=O (some centres unmarked) [Compound 81] |  | Particular affinity | Particularly promising activity | 91.4
6 | CCC(C(N)=O)N1CC(c2cccnc2)CC1=O (centres unmarked) [Compound 96] |  | Particular affinity | Particularly promising activity | 104.3
7 | CCC(C(N)=O)N1CC(CC(C)C)CC1=O (centres unmarked) [Compound 166] |  | Particular affinity | Particularly promising activity | 120.2
8 | CC[C@@H](C(N)=O)N1CC(c2cccc(N=[N+]=[N-])c2)CC1=O (single isomer, unassigned) [Compound 86] |  | Particular affinity | Particularly promising activity | 94.5
9 | CCC(C(N)=O)N1CC(CCCc2ccccc2)CC1=O (centres unmarked) [Compound 197] |  | Particular affinity | Particularly promising activity | 92.5
10 | C=CC1CC(=O)N(C(CC)C(N)=O)C1 (centres unmarked) [Compound 41] |  | Particular affinity | Particularly promising activity | 120.5
11 | CC[C@@H](C(N)=O)N1CC(c2cccc(N=[N+]=[N-])c2)CC1=O (some centres unmarked) [Compound 87] |  | Particular affinity | Particularly promising activity | 98
12 | CC[C@@H](C(N)=O)N1CC(c2ccccc2)CC1=O (some centres unmarked) [Compound 23] |  | Particular affinity | Particularly promising activity | 92.4
13 | CCC(C(N)=O)N1CC(c2ccccc2F)CC1=O (centres unmarked) [Compound 211] |  | Particular affinity | Particularly promising activity | 150.9
14 | CCC(C(N)=O)N1CC(C#CBr)CC1=O (centres unmarked) [Compound 264] |  | Particular affinity | Particularly promising activity | 173.2
15 | CCC(C(N)=O)N1CC(c2nccs2)CC1=O (centres unmarked) [Compound 64] |  | Particular affinity | Particularly promising activity | 94.3
16 | CCCCC1CC(=O)N(C(CC)C(N)=O)C1 (centres unmarked) [Compound 164] |  | Particular affinity | Particularly promising activity | 108.8
17 | CC[C@@H](C(=O)NC)N1CC(CI)CC1=O (stereo partly drawn) [Compound 146, (2S)-2-[4-(iodomethyl)-2-oxo-1-pyrrolidinyl]-N-methylbutanamide] |  | Particular affinity | Particularly promising activity | 66.6
18 | CCC(C(N)=O)N1CC(c2ccc(Cl)c(Cl)c2)CC1=O (centres unmarked) [Compound 187] |  | Particular affinity | Particularly promising activity | 177.9
19 | CCC(C(N)=O)N1CC(c2ccccc2Br)CC1=O (centres unmarked) [Compound 95] |  | Particular affinity | Particularly promising activity | 165.4
